Source: patent publication US20210122730A1, “GLUCOCORTICOID RECEPTOR MODULATORS” (ORIC Pharmaceuticals, Inc., priority 2017, published 2021)

Each compound was assayed against T1, GR (Homo sapiens, UniProt P04150) (assay: In Vitro GR Luciferase Reporter Assay (antagonist mode, CHO-K1-GR-MMTV-Luc reporter cells)). Conditions: antagonist assay with 10 nM Dexamethasone, 18-24 hours.
T1 construct: expressed in transfected cells; host or cells: CHO-K1
T1 sequence (P04150 1-777): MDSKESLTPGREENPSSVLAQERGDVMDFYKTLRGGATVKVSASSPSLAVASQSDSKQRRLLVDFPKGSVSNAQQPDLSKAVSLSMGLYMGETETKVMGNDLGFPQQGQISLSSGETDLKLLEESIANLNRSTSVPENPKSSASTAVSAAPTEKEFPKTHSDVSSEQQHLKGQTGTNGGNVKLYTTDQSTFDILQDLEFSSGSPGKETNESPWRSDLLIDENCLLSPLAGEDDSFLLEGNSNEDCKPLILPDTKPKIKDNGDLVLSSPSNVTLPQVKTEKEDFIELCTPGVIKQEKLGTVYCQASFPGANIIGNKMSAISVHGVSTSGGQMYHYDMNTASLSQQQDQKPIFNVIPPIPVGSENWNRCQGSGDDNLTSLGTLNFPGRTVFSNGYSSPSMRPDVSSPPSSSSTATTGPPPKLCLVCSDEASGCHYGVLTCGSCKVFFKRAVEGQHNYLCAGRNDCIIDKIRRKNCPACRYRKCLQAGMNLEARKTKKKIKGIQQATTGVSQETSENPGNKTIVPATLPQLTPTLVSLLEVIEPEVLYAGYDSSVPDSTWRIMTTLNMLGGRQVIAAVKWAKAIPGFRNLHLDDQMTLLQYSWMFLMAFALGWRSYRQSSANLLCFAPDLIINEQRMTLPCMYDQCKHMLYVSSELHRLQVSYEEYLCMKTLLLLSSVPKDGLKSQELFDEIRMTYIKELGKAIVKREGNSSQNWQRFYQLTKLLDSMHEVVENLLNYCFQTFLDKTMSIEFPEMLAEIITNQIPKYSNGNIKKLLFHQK
Assay type: cell-based
Description: Example A: In Vitro GR Luciferase Reporter Assay
Cell Line: CHO-K1-GR-MMTV-Luc reporter cells
Culture Media: DMEM (with phenol red)+10% FBS
Assay Media: DMEM (without phenol red)+10% CSS
Culture CHO-K1I-GR-MMTV-Luc reporter cells in 15 cm plates in Culture Media at conditions less than 90% confluence.
Prepare 200×DMSO 1:5 serial dilutions of control and test compounds in 96-well non-sterile V bottom plate in DMSO, 8serial dilutions for each compound.
Prepare 5× Assay Media diluted compound serial dilutions in 96-well non-sterile V bottom plate: Add 97.5 uL/well of Assay Media into 96-well then add 2.5 ul of 200× concentration of compounds and mix well.
Seed cells for Antagonist Assay: […] CHO-K1-GR-MMTV-Luc reporter cells were seeded in a Corning 3707 flat clear bottom 384-well white TC plate in 20 ul of Assay Media containing 12.5 nM Dexamethasone (final concentration=10 nM).
Add compounds: 5 ul of assay media diluted compounds were added to appropriate wells and followed a quick spin (1000 rpm, 10 sec) to bring media and cells to the bottom of plate. The plates were covered with SealMate film to avoid evaporation and placed in 37° C. incubator for approximately 18-24 hours.
Read plates: Equilibrate appropriate amount of Promega OneGlo luciferase reagent to room temperature. Remove the plates from incubator and add 25 uL of OneGlo reagent/well by multiple channel pipette and read the plates with Tecan F500 luminometer within 3 minutes.
The ability of the compounds disclosed herein to inhibit GR activity was quantified and the respective IC50 value was determined. Table 1and Table 2provide the cellular IC50 values of compounds disclosed herein.

Compound	IC50 [µM]
O=C(c1ccccn1)[C@]12Cc3cnn(-c4ccc(F)cc4)c3C=C1CC[C@@H](S(=O)(=O)c1ccc(C(F)(F)F)cc1)C2 [Example 11, ((4aS,6R)-1-(4-fluorophenyl)-6-((4-(trifluoromethyl)phenyl)sulfonyl)-1,4,5,6,7,8-hexahydro-4aH-benzo[f]indazol-4a-yl)(pyridin-2-yl)methanone]	≤ 0.1
O=C(c1nccs1)[C@]12Cc3cnn(-c4ccc(F)cc4)c3C=C1CC[C@H](S(=O)(=O)c1ccc(C(F)(F)F)cc1)C2 [Example 12, ((4aS,6S)-1-(4-fluorophenyl)-6-((4-(trifluoromethyl)phenyl)sulfonyl)-1,4,5,6,7,8-hexahydro-4aH-benzo[f]indazol-4a-yl)(thiazol-2-yl)methanone]	0.1 to 1
O=C(c1nccs1)[C@]12Cc3cnn(-c4ccc(F)cc4)c3C=C1CC[C@@H](S(=O)(=O)c1ccc(C(F)(F)F)cc1)C2 [Example 13, ((4aS,6R)-1-(4-fluorophenyl)-6-((4-(trifluoromethyl)phenyl)sulfonyl)-1,4,5,6,7,8-hexahydro-4aH-benzo[f]indazol-4a-yl)(thiazol-2-yl)methanone]	0.1 to 1
O=C(c1cc(C(F)(F)F)ccn1)[C@]12Cc3cnn(-c4ccc(F)cc4)c3C=C1CC[C@H](S(=O)(=O)c1ccc(F)c(F)c1)C2 [Example 14, ((4aS,6S)-6-((3,4-difluorophenyl)sulfonyl)-1-(4-fluorophenyl)-1,4,5,6,7,8-hexahydro-4aH-benzo[f]indazol-4a-yl)(4-(trifluoromethyl)pyridin-2-yl)methanone]	≤ 0.1
Cc1ccc(S(=O)(=O)[C@H]2CCC3=Cc4c(cnn4-c4ccc(F)cc4)C[C@]3(C(=O)c3cc(C(F)(F)F)ccn3)C2)cc1 [Example 15, ((4aS,6S)-1-(4-fluorophenyl)-6-tosyl-1,4,5,6,7,8-hexahydro-4aH-benzo[f]indazol-4a-yl)(4-(trifluoromethyl)pyridin-2-yl)methanone]	≤ 0.1

Other lines, results leading:

IC50 [µM]	Compound
≤ 0.1	Cc1ccc(S(=O)(=O)[C@H]2CCC3=Cc4c(cnn4-c4ccc(F)cc4)C[C@]3(C(=O)c3ccccn3)C2)cc1 [Example 1, ((4aS,6S)-1-(4-Fluorophenyl)-6-tosyl-1,4,5,6,7,8-hexahydro-4aH-benzo[f]indazol-4a-yl)(pyridin-2-yl)methanone]
≤ 0.1	Cc1ccc(S(=O)(=O)[C@@H]2CCC3=Cc4c(cnn4-c4ccc(F)cc4)C[C@]3(C(=O)c3ccccn3)C2)cc1 [Example 2, ((4aS,6R)-1-(4-Fluorophenyl)-6-tosyl-1,4,5,6,7,8-hexahydro-4aH-benzo[f]indazol-4a-yl)(pyridin-2-yl)methanone]
≤ 0.1	Cn1cc(S(=O)(=O)[C@H]2CCC3=Cc4c(cnn4-c4ccc(F)cc4)C[C@]3(C(=O)c3cc(C(F)(F)F)ccn3)C2)cn1 [Example 3, ((4aS,6S)-1-(4-Fluorophenyl)-6-((1-methyl-1H-pyrazol-4-yl)sulfonyl)-1,4,5,6,7,8-hexahydro-4aH-benzo[f]indazol-4a-yl)(4-(trifluoromethyl)pyridin-2-yl)methanone]
≤ 0.1	O=C(c1ccccc1)N(C1CC1)[C@H]1CCC2=Cc3c(cnn3-c3ccc(F)cc3)C[C@]2(C(=O)c2ccccn2)C1 [Example 6, N-Cyclopropyl-N-((4aS,6S)-1-(4-fluorophenyl)-4a-picolinoyl-4,4a,5,6,7,8-hexahydro-1H-benzo[f]indazol-6-yl)benzamide]
≤ 0.1	O=C(c1ccccn1)[C@]12Cc3cnn(-c4ccc(F)cc4)c3C=C1CC[C@H](S(=O)(=O)N1CCCCC1)C2 [Example 7, [(4aS,6S)-1-(4-Fluorophenyl)-6-(1-piperidylsulfonyl)-5,6,7,8-tetrahydro-4H-benzo[f]indazol-4a-yl]-(2-pyridyl)methanone]
≤ 0.1	Cc1ccc(S(=O)(=O)[C@H]2CCC3=Cc4c(cnn4-c4ccc(F)cc4)C[C@]3(C(=O)c3nccs3)C2)cc1 [Example 8, ((4aS,6S)-1-(4-fluorophenyl)-6-tosyl-1,4,5,6,7,8-hexahydro-4aH-benzo[f]indazol-4a-yl)(thiazol-2-yl)methanone]
≤ 0.1	Cc1ccc(S(=O)(=O)[C@@H]2CCC3=Cc4c(cnn4-c4ccc(F)cc4)C[C@]3(C(=O)c3nccs3)C2)cc1 [Example 9, ((4aS,6R)-1-(4-fluorophenyl)-6-tosyl-1,4,5,6,7,8-hexahydro-4aH-benzo[f]indazol-4a-yl)(thiazol-2-yl)methanone]
≤ 0.1	O=C(c1ccccn1)[C@]12Cc3cnn(-c4ccc(F)cc4)c3C=C1CC[C@H](S(=O)(=O)c1ccc(C(F)(F)F)cc1)C2 [Example 10, ((4aS,6S)-1-(4-fluorophenyl)-6-((4-(trifluoromethyl)phenyl)sulfonyl)-1,4,5,6,7,8-hexahydro-4aH-benzo[f]indazol-4a-yl)(pyridin-2-yl)methanone]

Same assay, conditions: antagonist mode, 10 nM Dexamethasone

IC50 [µM]	Compound
≤ 0.1	C[C@@]1(S(=O)(=O)c2ccccc2)CCC2=Cc3c(cnn3-c3ccc(F)cc3)C[C@]2(C(=O)c2ccccn2)C1 (single isomer, unassigned) [Example 116, ((4aS,6R)-1-(4-Fluorophenyl)-6-methyl-6-(phenylsulfonyl)-1,4,5,6,7,8-hexahydro-4aH-benzo[f]indazol-4a-yl)(pyridin-2-yl)methanone or ((4aS,6S)-1-(4-fluorophenyl)-6-methyl-6-(phenylsulfonyl)-1,4,5,6,7,8-hexahydro-4aH-benzo[f]indazol-4a-yl)(pyridin-2-yl)methanone]
0.1 to 1	C[C@@]1(S(=O)(=O)c2ccccc2)CCC2=Cc3c(cnn3-c3ccc(F)cc3)C[C@]2(C(=O)c2ccccn2)C1 (single isomer, unassigned) [Example 117, ((4aS,6R)-1-(4-Fluorophenyl)-6-methyl-6-(phenylsulfonyl)-1,4,5,6,7,8-hexahydro-4aH-benzo[f]indazol-4a-yl)(pyridin-2-yl)methanone or ((4aS,6S)-1-(4-fluorophenyl)-6-methyl-6-(phenylsulfonyl)-1,4,5,6,7,8-hexahydro-4aH-benzo[f]indazol-4a-yl)(pyridin-2-yl)methanone]
≤ 0.1	Cn1cc(S(=O)(=O)C[C@@H]2CCC3=Cc4c(cnn4-c4ccc(F)cc4)C[C@]3(C(=O)c3cc(C(F)(F)F)ccn3)C2)cn1 (single isomer, unassigned) [Example 119]
≤ 0.1	C[C@H]([C@H]1CCC2=Cc3c(cnn3-c3ccc(F)cc3)C[C@]2(C(=O)c2cc(C(F)(F)F)ccn2)C1)S(=O)(=O)c1cnn(C)c1 (single isomer, unassigned) [Example 120, ((4aR,6S)-1-(4-Fluorophenyl)-6-((R)-1-((1-methyl-1H-pyrazol-4-yl)sulfonyl)ethyl)-1,4,5,6,7,8-hexahydro-4aH-benzo[f]indazol-4a-yl)(4-(trifluoromethyl)pyridin-2-yl)methanone or ((4aR,6S)-1-(4-fluorophenyl)-6-((S)-1-((1-methyl-1H-pyrazol-4-yl)sulfonyl)ethyl)-1,4,5,6,7,8-hexahydro-4aH-benzo[f]indazol-4a-yl)(4-(trifluoromethyl)pyridin-2-yl)methanone]
≤ 0.1	C[C@H]([C@H]1CCC2=Cc3c(cnn3-c3ccc(F)cc3)C[C@]2(C(=O)c2cc(C(F)(F)F)ccn2)C1)S(=O)(=O)c1cnn(C)c1 (single isomer, unassigned) [Example 121, ((4aR,6S)-1-(4-Fluorophenyl)-6-((R)-1-((1-methyl-1H-pyrazol-4-yl)sulfonyl)ethyl)-1,4,5,6,7,8-hexahydro-4aH-benzo[f]indazol-4a-yl)(4-(trifluoromethyl)pyridin-2-yl)methanone or ((4aR,6S)-1-(4-fluorophenyl)-6-((S)-1-((1-methyl-1H-pyrazol-4-yl)sulfonyl)ethyl)-1,4,5,6,7,8-hexahydro-4aH-benzo[f]indazol-4a-yl)(4-(trifluoromethyl)pyridin-2-yl)methanone]
